Results: US20160251332A1, “Herbicidal Compounds” (SYNGENTA PARTICIPATIONS AG, priority 2013, published 2016)

What was measured:
Assay type in all cases: in vivo
Amaranthus retroflexus [1] = test: Pre-emergence herbicidal activity, AMARE; conditions: Application pre-emergence, 1000 g/Ha, evaluated after 13 days, scale 0-5
Protocol: (§1) Seeds of a variety of test species were sown in standard soil in pots. After cultivation for one day (pre-emergence) under controlled conditions in a glasshouse (at 24/16° C., day/night; 14 hours light; 65% humidity), the plants were sprayed with an aqueous spray solution derived from the formulation of the technical active ingredient in acetone/water (50:50) solution containing 0.5% Tween 20 (polyoxyethelyene sorbitan monolaurate, CAS RN 9005-64-5). The test plants were then grown in a glasshouse under controlled conditions (at 24/16° C., day/night; 14 hours light; 65% humidity) and watered twice daily. After 13 days, the test was evaluated (5=total damage to plant; 0=no damage to plant).

Echinochloa crus-galli [2] = test: Pre-emergence herbicidal activity, ECHCG; conditions: Application pre-emergence, 1000 g/Ha, evaluated after 13 days, scale 0-5
Protocol: as §1

Abutilon theophrasti [3] = test: Pre-emergence herbicidal activity, ABUTH; conditions: Application pre-emergence, 1000 g/Ha, evaluated after 13 days, scale 0-5
Protocol: as §1

Setaria faberi [4] = test: Pre-emergence herbicidal activity, SETFA; conditions: Application pre-emergence, 1000 g/Ha, evaluated after 13 days, scale 0-5
Protocol: as §1

Alopecurus myosuroides [5] = test: Pre-emergence herbicidal activity, ALOMY; conditions: Application pre-emergence, 1000 g/Ha, evaluated after 13 days, scale 0-5
Protocol: as §1

Zea mays [6] = test: Pre-emergence herbicidal activity, ZEAMX; conditions: Application pre-emergence, 1000 g/Ha, evaluated after 13 days, scale 0-5
Protocol: as §1

Amaranthus retroflexus [7] = test: Post-emergence herbicidal activity, AMARE; conditions: Application post-emergence, 1000 g/Ha, evaluated after 13 days, scale 0-5
Protocol: (§2) Seeds of a variety of test species were sown in standard soil in pots. After 8 days cultivation (post-emergence) under controlled conditions in a glasshouse (at 24/16° C., day/night; 14 hours light; 65% humidity), the plants were sprayed with an aqueous spray solution derived from the formulation of the technical active ingredient in acetone/water (50:50) solution containing 0.5% Tween 20 (polyoxyethelyene sorbitan monolaurate, CAS RN 9005-64-5). The test plants were then grown in a glasshouse under controlled conditions (at 24/16° C., day/night; 14 hours light; 65% humidity) and watered twice daily. After 13 days, the test was evaluated (5=total damage to plant; 0=no damage to plant).

Abutilon theophrasti [8] = test: Post-emergence herbicidal activity, ABUTH; conditions: Application post-emergence, 1000 g/Ha, evaluated after 13 days, scale 0-5
Protocol: as §2

Setaria faberi [9] = test: Post-emergence herbicidal activity, SETFA; conditions: Application post-emergence, 1000 g/Ha, evaluated after 13 days, scale 0-5
Protocol: as §2

Echinochloa crus-galli [10] = test: Post-emergence herbicidal activity, ECHCG; conditions: Application post-emergence, 1000 g/Ha, evaluated after 13 days, scale 0-5
Protocol: as §2

Zea mays [11] = test: Post-emergence herbicidal activity, ZEAMX; conditions: Application post-emergence, 1000 g/Ha, evaluated after 13 days, scale 0-5
Protocol: as §2

Alopecurus myosuroides [12] = test: Post-emergence herbicidal activity, ALOMY; conditions: Application post-emergence, 1000 g/Ha, evaluated after 13 days, scale 0-5
Protocol: as §2

COc1ccccc1-c1cnc(N2C(=O)N(C)CC2O)cc1C(F)(F)F (stereo not drawn) [Compound A18]
AMARE damage score (Amaranthus retroflexus [1]): 2
ECHCG damage score (Echinochloa crus-galli [2]): 3
ABUTH damage score (Abutilon theophrasti [3]): 2
SETFA damage score (Setaria faberi [4]): 1
ALOMY damage score (Alopecurus myosuroides [5]): 2
ZEAMX damage score (Zea mays [6]): 1
AMARE damage score (Amaranthus retroflexus [7]): 5
ABUTH damage score (Abutilon theophrasti [8]): 5
SETFA damage score (Setaria faberi [9]): 2
ECHCG damage score (Echinochloa crus-galli [10]): 4
ZEAMX damage score (Zea mays [11]): 5
ALOMY damage score (Alopecurus myosuroides [12]): 2

CN1CC(O)N(c2cc(C(F)(F)F)c(Br)cn2)C1=O (stereo not drawn) [Compound A19]
AMARE damage score (Amaranthus retroflexus [1]): 5
ECHCG damage score (Echinochloa crus-galli [2]): 5
ABUTH damage score (Abutilon theophrasti [3]): 5
SETFA damage score (Setaria faberi [4]): 5
ALOMY damage score (Alopecurus myosuroides [5]): 5
ZEAMX damage score (Zea mays [6]): 5
AMARE damage score (Amaranthus retroflexus [7]): 5
ABUTH damage score (Abutilon theophrasti [8]): 5
SETFA damage score (Setaria faberi [9]): 5
ECHCG damage score (Echinochloa crus-galli [10]): 5
ZEAMX damage score (Zea mays [11]): 4
ALOMY damage score (Alopecurus myosuroides [12]): 5

CN1CC(O)N(c2cc(C(F)(F)F)c(Cl)cn2)C1=O (stereo not drawn) [Compound A36]
AMARE damage score (Amaranthus retroflexus [1]): 5
ECHCG damage score (Echinochloa crus-galli [2]): 5
ABUTH damage score (Abutilon theophrasti [3]): 5
SETFA damage score (Setaria faberi [4]): 4
ALOMY damage score (Alopecurus myosuroides [5]): 4
ZEAMX damage score (Zea mays [6]): 2
AMARE damage score (Amaranthus retroflexus [7]): 5
ABUTH damage score (Abutilon theophrasti [8]): 5
SETFA damage score (Setaria faberi [9]): 5
ECHCG damage score (Echinochloa crus-galli [10]): 5
ZEAMX damage score (Zea mays [11]): 5
ALOMY damage score (Alopecurus myosuroides [12]): 5

CN1CC(O)N(c2cc(C(C)(F)F)ccn2)C1=O (stereo not drawn) [Compound A37]
AMARE damage score (Amaranthus retroflexus [1]): 5
ECHCG damage score (Echinochloa crus-galli [2]): 3
ABUTH damage score (Abutilon theophrasti [3]): 5
SETFA damage score (Setaria faberi [4]): 1
ALOMY damage score (Alopecurus myosuroides [5]): 4
ZEAMX damage score (Zea mays [6]): 2
AMARE damage score (Amaranthus retroflexus [7]): 5
ABUTH damage score (Abutilon theophrasti [8]): 5
SETFA damage score (Setaria faberi [9]): 5
ECHCG damage score (Echinochloa crus-galli [10]): 4
ZEAMX damage score (Zea mays [11]): 4
ALOMY damage score (Alopecurus myosuroides [12]): 5

CN1CC(O)N(c2cc(C(C)(C)F)ccn2)C1=O (stereo not drawn) [Compound A38]
AMARE damage score (Amaranthus retroflexus [1]): 5
ECHCG damage score (Echinochloa crus-galli [2]): 4
ABUTH damage score (Abutilon theophrasti [3]): 5
SETFA damage score (Setaria faberi [4]): 4
ALOMY damage score (Alopecurus myosuroides [5]): 4
ZEAMX damage score (Zea mays [6]): 0
AMARE damage score (Amaranthus retroflexus [7]): 5
ABUTH damage score (Abutilon theophrasti [8]): 5
SETFA damage score (Setaria faberi [9]): 5
ECHCG damage score (Echinochloa crus-galli [10]): 5
ZEAMX damage score (Zea mays [11]): 4
ALOMY damage score (Alopecurus myosuroides [12]): 5

COc1cnc(N2C(=O)N(C)CC2O)cc1C(F)(F)F (stereo not drawn) [Compound A39]
AMARE damage score (Amaranthus retroflexus [1]): 5
ECHCG damage score (Echinochloa crus-galli [2]): 4
ABUTH damage score (Abutilon theophrasti [3]): 5
SETFA damage score (Setaria faberi [4]): 4
ALOMY damage score (Alopecurus myosuroides [5]): 4
ZEAMX damage score (Zea mays [6]): 2
AMARE damage score (Amaranthus retroflexus [7]): 5
ABUTH damage score (Abutilon theophrasti [8]): 5
SETFA damage score (Setaria faberi [9]): 5
ECHCG damage score (Echinochloa crus-galli [10]): 5
ZEAMX damage score (Zea mays [11]): 4
ALOMY damage score (Alopecurus myosuroides [12]): 5

Cc1cnc(N2C(=O)N(C)CC2O)cc1C(F)(F)F (stereo not drawn) [Compound A40]
AMARE damage score (Amaranthus retroflexus [1]): 5
ECHCG damage score (Echinochloa crus-galli [2]): 5
ABUTH damage score (Abutilon theophrasti [3]): 5
SETFA damage score (Setaria faberi [4]): 4
ALOMY damage score (Alopecurus myosuroides [5]): 4
ZEAMX damage score (Zea mays [6]): 4
AMARE damage score (Amaranthus retroflexus [7]): 5
ABUTH damage score (Abutilon theophrasti [8]): 5
SETFA damage score (Setaria faberi [9]): 5
ECHCG damage score (Echinochloa crus-galli [10]): 5
ZEAMX damage score (Zea mays [11]): 4
ALOMY damage score (Alopecurus myosuroides [12]): 5
